This experiment has as its target T1, human full length HSD11 β 1 (Homo sapiens, UniProt P28845).
T1 construct: transient expression of human full length HSD11 β 1 expression vector; host or cells: CHO cells (transient transfection)
The experiment in a line: In Vitro HSD11β1 Inhibition Assay. The experiment is classed as cell-based. As to conditions: CHO cells transiently expressing human HSD11β1; 200 nM cortisone+500 uM NADPH overnight; cortisone to cortisol by LC/MS-MS; read-out: 11βHSD1 (IC50). The gist of the method:
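CHO cells transiently transfected with human full-length HSD11β1 were re-seeded after 24 h and, 24 h later, incubated overnight with 200 nM cortisone plus 500 uM NADPH and inhibitor. Cortisone-to-cortisol conversion was measured by LC/MS-MS. IC50 from an 8-point log concentration–inhibition curve.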

Structures are written as SMILES.

The source of these data is patent US9453014B2, “Cyclic amide derivatives as inhibitors of 11-β-hydroxysteroid dehydrogenase and uses thereof” (CONNEXIOS LIFE SCIENCES PVT. LTD., priority 2011, dated 2016).

T1 sequence (P28845 whole entry): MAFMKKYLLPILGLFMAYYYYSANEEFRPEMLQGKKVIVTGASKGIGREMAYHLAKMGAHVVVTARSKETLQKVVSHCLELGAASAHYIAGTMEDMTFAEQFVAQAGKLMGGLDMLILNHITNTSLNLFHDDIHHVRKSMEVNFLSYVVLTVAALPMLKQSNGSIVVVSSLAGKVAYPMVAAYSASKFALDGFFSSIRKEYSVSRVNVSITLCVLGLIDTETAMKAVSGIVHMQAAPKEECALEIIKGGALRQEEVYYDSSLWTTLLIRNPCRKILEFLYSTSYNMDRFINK

`CO/N=C1/CCN(C(=O)CCc2c[nH]c3ccccc23)C2CCCCC12` (centres unmarked) [Compound 36]: the IC50 is more than 250 nM.

Turning to `CC1CC2CCCCC2N(C(=O)CCc2c[nH]c3ccccc23)C1` (centres unmarked) [Compound 37, 3-(1H-indol-3-yl)-1-(3-methyloctahydroquinolin-1(2H)-yl)propan-1-one], the IC50 was more than 250 nM.

For the compound `CC1CCC2CCCCC2N1C(=O)CCc1c[nH]c2ccccc12` (centres unmarked) [Compound 38, 3-(1H-indol-3-yl)-1-(2-methyloctahydroquinolin-1(2H)-yl)propan-1-one], the IC50 is 150 to 200 nM.

On to `O=C(CCc1c[nH]c2cc(F)ccc12)N1CCCC2CCCCC21` (centres unmarked) [Compound 39, 3-(6-fluoro-1H-indol-3-yl)-1-(octahydroquinolin-1(2H)-yl)propan-1-one], for which the IC50 was more than 250 nM.

For `CC1CCC2CCCCC2N1C(=O)CCc1c[nH]c2cc(F)ccc12` (centres unmarked) [Compound 40, 3-(6-fluoro-1H-indol-3-yl)-1-(2-methyloctahydroquinolin-1(2H)-yl)propan-1-one], the IC50 was more than 250 nM.

Turning to `O=C(CCc1c[nH]c2ccccc12)N1CCC2CCCCC21` (centres unmarked) [Compound 41, 3-(1H-indol-3-yl)-1-(octahydro-1H-Indol-1-yl)propan-1-one], the 50% inhibitory concentration (IC50) was 100 to 150 nM.

On to `O=C(CCc1c[nH]c2ccccc12)N1CC2CCCCC2C1` (centres unmarked) [Compound 42, 3-(1H-indol-3-yl)-1-(octahydro-2H-isoindol-2-yl)propan-1-one], for which the IC50 is more than 250 nM.

In the case of `O=C1CCN(C(=O)CCc2c[nH]c3cc(F)ccc23)C2CCCCC12` (centres unmarked) [Compound 43, 1-[3-(6-fluoro-1H-indol-3-yl)propanoyl]octahydroquinolin-4(1H)-one], the 50% inhibitory concentration (IC50) was more than 250 nM.

On to `O=C(CCc1c[nH]c2cccc(F)c12)N1CCCC2CCCCC21` (centres unmarked) [Compound 44, 3-(4-fluoro-1H-indol-3-yl)-1-(octahydroquinolin-1(2H)-yl)propan-1-one], for which the IC50 was less than 100 nM.

On to `CC1CC2CCCCC2N1C(=O)CCc1c[nH]c2ccccc12` (centres unmarked) [Compound 45], for which the IC50 is more than 250 nM.

`O=C(O)Cn1cc(CCC(=O)N2CCCC3CCCCC32)c2ccccc21` (centres unmarked) [Compound 46, {3-[3-(octahydroquinolin-1(2H)-yl)-3-oxopropyl]-1H-indol-1-yl}acetic acid]: the IC50 is more than 250 nM.

On to `Cn1cc(CCC(=O)N2CCCC3CCCCC32)c2c(F)cccc21` (centres unmarked) [Compound 47, 3-(4-fluoro-1-methyl-1H-Indol-3-yl)-1-(octahydroquinolin-1(2H)-yl)propan-1-one], for which the IC50 is less than 100 nM.

As for `O=C(CCc1c[nH]c2ccccc12)N1CCCC2=C1CCCC2` [Compound 48, 1-(3,4,5,6,7,8-hexahydroquinolin-1(2H)-yl)-3-(1H-indol-3-yl)propan-1-one], the IC50 was more than 250 nM.

Turning to `COC(=O)C1CCN(C(=O)CCc2c[nH]c3ccccc23)C2CCCCC12` (centres unmarked) [Compound 49, methyl 1-[3-(1H-indol-3-yl)propanoyl]decahydroquinoline-4-carboxylate], the half-maximal inhibitory concentration (IC50) was more than 250 nM.

As to `O=C(O)C1CCN(C(=O)CCc2c[nH]c3ccccc23)C2CCCCC12` (centres unmarked) [Compound 50, 1-[3-(1H-indol-3-yl)propanoyl]decahydroquinoline-4-carboxylic acid], the IC50 was more than 250 nM.

Consider `O=C(CCc1cn(S(=O)(=O)c2ccccc2)c2ccccc12)N1CCCC2CCCCC21` (centres unmarked) [Compound 51, 1-(octahydroquinolin-1(2H)-yl)-3-[1-(phenylsulfonyl)-1H-indol-3-yl]propan-1-one], for which the IC50 is more than 250 nM.

On to `O=C(CCc1c[nH]c2ccccc12)N1CCCCC2CCCCC21` (centres unmarked) [Compound 54, 1-(decahydro-1H-1-benzazepin-1-yl)-3-(1H-indol-3-yl)propan-1-one], for which the IC50 was more than 250 nM.

As for `O=C(CS(=O)(=O)c1c[nH]c2ccccc12)N1CCCC2CCCCC21` (centres unmarked) [Compound 57, 2-(1H-indol-3-ylsulfonyl)-1-(octahydroquinolin-1(2H)-yl)ethanone], the IC50 was more than 250 nM.

Turning to `Cn1cc(C(C)(C)CC(=O)N2CCCC3(C)CCCCC23)c2ccccc21` (centres unmarked) [Compound 59, 3-methyl-3-(1-methyl-1H-indol-3-yl)-1-(4a-methyloctahydroquinolin-1 (2H)-yl)butan-1-one], the IC50 is 150 to 200 nM.

On to `Cc1cccc2c1c(CCC(=O)N1CCOC3CCCCC31)cn2C` (centres unmarked) [Compound 60, 3-(1,4-dimethyl-1H-indol-3-yl)-1-(octahydro-4H-1,4-benzoxazin-4-yl)propan-1-one], for which the IC50 was less than 100 nM.

For `O=C(CCc1c[nH]c2ccccc12)N1CCO[C@@H]2CCCCC21` (stereo partly drawn) [Compound 61, 3-(1H-indol-3-yl)-1-[(trans-4a,8a)-octahydro-4H-1,4-benzoxazin-4-yl]propan-1-one], the IC50 was more than 250 nM.

With `Cc1cccc2[nH]cc(CCC(=O)N3CCOC4CCCCC43)c12` (centres unmarked) [Compound 64, 3-(4-methyl-1H-indol-3-yl)-1-(octahydro-4H-1,4-benzoxazin-4-yl)propan-1-one], the IC50 lay in the range of 150 to 200 nM.

For the compound `O=C(CCc1c[nH]c2ccccc12)N1CCOC2CCCCC21` (centres unmarked) [Compound 67, 3-(1H-indol-3-yl)-1-(octahydro-4H-1,4-benzoxazin-4-yl)propan-1-one], the IC50 was more than 250 nM.

`Cc1cccc2[nH]cc(CCC(=O)N3CC(C)(C)OC4CCCCC43)c12` (centres unmarked) [Compound 68, 1-(2,2-dimethyloctahydro-4H-1,4-benzoxazin-4-yl)-3-(4-methyl-1H-indol-3-yl)propan-1-one]: the IC50 was more than 250 nM.

On to `Cc1cccc2c1c(CCC(=O)N1CC(C)OC3CCCCC31)cn2C` (centres unmarked) [Compound 69, 3-(1,4-dimethyl-1H-indol-3-yl)-1-(2-methyloctahydro-4H-1,4-benzoxazin-4-yl)propan-1-one], for which the IC50 is more than 250 nM.

Take `Cc1cccc2c1c(CCC(=O)N1CC(C)(C)OC3CCCCC31)cn2C` (centres unmarked) [Compound 70, 3-(1,4-dimethyl-1H-indol-3-yl)-1-(2,2-dimethyloctahydro-4H-1,4-benzoxazin-4-yl)propan-1-one]: the IC50 is more than 250 nM.

As for `Cn1cc(C(C)(C)CC(=O)N2CCOC3CCCCC32)c2ccccc21` (centres unmarked) [Compound 71, 3-methyl-3-(1-methyl-1H-indol-3-yl)-1-(octahydro-4H-1,4-benzoxazin-4-yl)butan-1-one], the IC50 was 150 to 200 nM.

As for `O=C(CCc1c[nH]c2cccc(F)c12)N1CCOC2CCCCC21` (centres unmarked) [Compound 72, 3-(4-fluoro-1H-indol-3-yl)-1-(octahydro-4H-1,4-benzoxazin-4-yl)propan-1-one], the IC50 is less than 100 nM.

In the case of `O=C(CSc1nc2ccccc2s1)N1CCCC2CCCCC21` (centres unmarked) [Compound 73, 2-(1,3-benzothiazol-2-ylsulfanyl)-1-(octahydroquinolin-1(2H)-yl)ethanone], the IC50 is more than 250 nM.

With `CC(CC(=O)N1CCC(CC(=O)O)C2CCCCC21)c1c[nH]c2cccc(C3CC3)c12` (centres unmarked) [Compound 189, (1-[3-(4-cyclopropyl-1H-indol-3-yl)butanoyl]decahydroquinolin-4-yl)acetic acid], the IC50 is more than 250 nM.

On to `CC(CC(=O)N1CCCC2C(C(=O)O)CCCC21)c1c[nH]c2cccc(C3CC3)c12` (centres unmarked) [Compound 190, 1-[3-(4-cyclopropyl-1H-Indol-3-yl)butanoyl]decahydroquinoline-5-carboxylic acid], for which the IC50 is less than 100 nM.

As to `CC(CC(=O)N1CCCC2CC(C(=O)O)CCC21)c1c[nH]c2cccc(C3CC3)c12` (centres unmarked) [Compound 191, 1-[3-(4-cyclopropyl-1H-Indol-3-yl)butanoyl]decahydroquinoline-6-carboxylic acid], the IC50 lay within 100 to 150 nM.

In the case of `CC(CC(=O)N1CCCC2C(C(=O)O)CCCC21)c1c[nH]c2cccc(-c3cccs3)c12` (centres unmarked) [Compound 192, 1-{3-[4-(thiophen-2-yl)-1H-indol-3-yl]butanoyl}decahydroquinoline-5-carboxylic acid], the IC50 is less than 100 nM.

Regarding `CC(CC(=O)N1CCCC2C(C(=O)O)CCCC21)c1c[nH]c2cccc(Cl)c12` (centres unmarked) [Compound 193, 1-[3-(4-chloro-1H-indol-3-yl)butanoyl]decahydroquinoline-5-carboxylic acid], the IC50 lay in the range of 100 to 150 nM.

Consider `CC(CC(=O)N1CCC(C(=O)O)C2CCCCC21)c1c[nH]c2cccc(C3CC3)c12` (centres unmarked) [Compound 194, 1-[3-(4-cyclopropyl-1H-indol-3-yl)butanoyl]decahydroquinoline-4-carboxylic acid], for which the IC50 is more than 250 nM.

For `CC(CC(=O)N1CCCC2C(C(=O)O)CCCC21)c1c[nH]c2cccc(C#N)c12` (centres unmarked) [Compound 197, 1-[3-(4-cyano-1H-indol-3-yl)butanoyl]decahydroquinoline-5-carboxylic acid], the IC50 was more than 250 nM.

On to `CC(C)Oc1cccc2[nH]cc(C(C)CC(=O)N3CCCC4C(C(=O)O)CCCC43)c12` (centres unmarked) [Compound 201, 1-{3-[4-(propan-2-yloxy)-1H-indol-3-yl]butanoyl}decahydroquinoline-5-carboxylic acid], for which the IC50 was less than 100 nM.

Regarding `CC(CC(=O)N1CCCC2CCCCC21)c1c[nH]c2cccc(N3CCC(C(=O)O)CC3)c12` (centres unmarked) [Compound 202, 1-{3-[4-(octahydroquinolin-1(2H)-yl)-4-oxobutan-2-yl]-1H-indol-4-yl}piperidine-4-carboxylic acid], the IC50 is more than 250 nM.

In the case of `Cc1ccc2[nH]cc(C(C)CC(=O)N3CCCC4C(C(=O)O)CCCC43)c2c1Cl` (centres unmarked) [Compound 203, 1-[3-(4-chloro-5-methyl-1H-indol-3-yl)butanoyl]decahydroquinoline-5-carboxylic acid], the IC50 is more than 250 nM.

With `CC(CC(=O)N1CCCC2C(C(=O)O)CCCC21)c1cn(C)c2cccc(C3CC3)c12` (centres unmarked) [Compound 204, 1-[3-(4-cyclopropyl-1-methyl-1H-indol-3-yl)butanoyl]decahydroquinoline-5-carboxylic acid], the IC50 was less than 100 nM.

Turning to `CC(CC(=O)N1CCCC2C(C(=O)O)CCCC21)c1c[nH]c2nccc(C3CC3)c12` (centres unmarked) [Compound 205, 1-[3-(4-cyclopropyl-1H-pyrrolo[2,3-b]pyridin-3-yl)butanoyl]decahydroquinoline-5-carboxylic acid], the IC50 was more than 250 nM.

A word on the IC50: it is the concentration that inhibits the measured activity by half.
